We go through 83 molecules from PubChem BioAssay AID1259418 (Broad Institute, 2018).

Several values for one entry are separate records, joined by “and”; a condition that tells them apart may be missing. Equal entries are not always repeated. Results filed as inconclusive are left out. Activity calls are given as the source filed them.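 How the source made its calls: active means fitted half-maximal concentration of signal decrease at or below twice the sample's top tested concentration; inconclusive means flat curve between -70 and -30 percent, or poor fit; inactive means flat within 30 percent, signal rise, or potency above limit.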

The experiment concerns the target T. gondii ME49Luc in IFN-y HeLa, luciferase, 72 h. Kind of experiment: inhibitors of Toxoplasma growth in IFN-γ-primed HeLa – cell-based, ME49Luc, luciferase, 72 h, dose response (AID 1259418).
Consider `COc1ccc(C#Cc2ccc([C@@H]3[C@H](CO)N4C(=O)CN(C(=O)NC(C)C)C[C@@H]34)cc2)cc1`, for which the AC50 (usually the concentration giving half of the maximal activity seen) is 28.3 µM.

`O=S(=O)(c1ccccc1)N1CCc2c([nH]c3ccccc23)C1c1cc(F)ccc1F` (stereo not drawn): the AC50 was 12.6 µM.

As to `O=S1(=O)c2ccccc2OCC2(CCN(Cc3ccc(F)cc3)CC2)CN1CC1CC1`, the AC50 was 26.6 µM.

As for `O=C(NCCc1csc(-c2ccccc2)n1)[C@H]1CCCN1C(=O)CCc1ccccc1`, the AC50 is > 39 µM (inactive).

As for `CCCCNC(=O)CCC1N=C2c3ccccc3N=C(SCc3ccccc3Cl)N2C1=O` (stereo not drawn), the AC50 was 24.1 µM.

As for `CO[C@@H]1[C@@H](OC(N)=O)[C@@H](O)[C@H](Oc2ccc3c(O)c(NC(=O)c4ccc(O)c(CC=C(C)C)c4)c(=O)oc3c2C)OC1(C)C`, the AC50 is 22.2 µM.

As to `N#Cc1cccc(-c2ccc([C@@H]3[C@H]4CN(Cc5ccccc5F)CCCCN4[C@H]3CO)cc2)c1`, the AC50 is 16.5 µM.

As to `COc1ccc(-c2nc(N3CCN(C4CCCCC4)CC3)c3ccccc3n2)cc1`, the AC50 is 30.1 µM.

Consider `CN(C)C(=O)c1ccc(-c2ccc(C3[C@@H]4CN(Cc5ccc6c(c5)OCO6)C[C@H]3N4)cc2)cc1` (stereo partly drawn), for which the AC50 is 17.3 µM.

On to `CN1C(=O)c2cc(NC(=O)Cc3cccs3)ccc2OC[C@H]2O[C@@H](CC(=O)NCc3ccc(-c4ccccc4)cc3)CC[C@@H]21`, for which the AC50 was 12.8 µM.

For the molecule `COc1ccc(-c2nc(Nc3ccc(C)cc3)c3ccccc3n2)cc1`, the AC50 was 19.1 µM.

With `N#C[C@@H]1[C@H](c2ccc(-c3cccc(F)c3)cc2)[C@H](CO)N1C(=O)NC1CCCC1`, the AC50 is 15.1 µM and 4.56 µM.

In the case of `O=C(c1ccc(F)cc1)N1CC(=O)N2[C@@H](CO)[C@H](c3ccc(C#CCC4CCCC4)cc3)[C@@H]2C1`, the AC50 was 17.9 µM and 10.9 µM.

For `COCC(=O)N(C[C@H]1N[C@H](CO)[C@@H]1c1ccc(C2=CCCC2)cc1)C1CCCC1`, the AC50 is 16.3 µM.

For the molecule `Cc1cc(C2CCCN2Cc2cn(C(C)C)c3ccccc23)no1` (stereo not drawn), the AC50 was 35.1 µM.

Turning to `O=C(C[C@@H]1CC[C@@H]2[C@H](COC[C@@H](O)CN2S(=O)(=O)c2ccccc2)O1)NCC1CCCCC1`, the AC50 is 20.8 µM.

As for `CCCN1CCc2nc(SCc3nc(-c4ccccc4OC)oc3C)[nH]c(=O)c2C1`, the AC50 was > 39 µM (inactive).

`COc1cccc(-c2nc(C)c(-c3ccc(SCc4ccc(F)cc4)nn3)s2)c1`: the AC50 was 6.5 µM.

As for `CC(C)C#Cc1ccc([C@H]2[C@@H](CO)N3C(=O)CN(C(=O)NC4CCCC4)C[C@H]23)cc1`, the AC50 is > 39 µM (inactive).

As for `COc1ccc(-c2nc(CN(c3ccccc3OC)S(=O)(=O)c3ccccc3)c(C)o2)cc1OC`, the AC50 was 3.59 µM.

Regarding `CCc1ccc(S(=O)(=O)N2CCC3(CC2)NCCN=C3NCc2cc(F)cc(F)c2)cc1`, the concentration at half-maximal activity (AC50) is 6.6 µM.

As for `Cc1ccc(S(=O)(=O)Nc2ccc3c(c2)C(=O)N([C@@H](C)CO)C[C@H](C)[C@H](CN(C)Cc2ccc(C(F)(F)F)cc2)O3)cc1`, the AC50 is 18.2 µM.

As for `CSc1cccc(NC(=O)CN2CCC3(CC2)N=C(c2cccc(Cl)c2)C(=O)N3)c1`, the AC50 is 23.8 µM.

Turning to `COc1cc(OC)cc(C(=O)N2CCC3(CC2)Nc2cc(OC)ccc2-n2cccc23)c1`, the AC50 is 30.1 µM.

Regarding `O=C(C1CCCCC1)N1CCC2(CC1)Nc1ccc(Cl)cc1-n1cccc12`, the AC50 was 24.7 µM.

Consider `COc1ccccc1CNC(=O)CCC1N=C2c3ccccc3N=C(SCc3cccc(F)c3)N2C1=O` (stereo not drawn), for which the AC50 was > 39 µM (inactive).

Regarding `CC(C)n1cnc2c(NCC3CC3)nc(C3CCN(C(=O)c4ccccc4)CC3)cc21`, the AC50 is 21.7 µM.

With `Cc1cccc(-c2nc(Cn3nnc(-c4nc(-c5ccncc5)no4)c3C)c(C)o2)c1`, the AC50 is 8.63 µM.

For `COc1ccc(NS(=O)(=O)c2cc3c4c(c2)CCC(=O)N4CCC3)cc1OC`, the AC50 was 28.4 µM.

Take `CC(C)C#Cc1ccc([C@H]2[C@@H](C#N)N(C(=O)c3cccc(F)c3)[C@@H]2CO)cc1`: the AC50 is 22 µM.

As for `Cn1nc2c(c1C(=O)Nc1ccc(N3CCCCC3)c(F)c1)CCCC2`, the AC50 is 15.9 µM.

With `CS(=O)(=O)N1CC(=O)N2[C@H](C1)[C@@H](c1ccc(C#CCC3CCCC3)cc1)[C@@H]2CO`, the AC50 is 19.2 µM.

On to `Cc1ccc(N(Cc2nc(-c3ccccc3)oc2C)S(=O)(=O)c2cccs2)cc1`, for which the concentration at half-maximal activity (AC50) was 3.53 µM.

On to `CC/C(=C(\c1ccccc1)c1ccc(OCCN(C)C)cc1)c1ccccc1`, for which the AC50 is 35.2 µM.

With `COc1ccc(-c2nc(CN(c3ccc(C)cc3)S(=O)(=O)c3cccs3)c(C)o2)cc1OC`, the AC50 was 15 µM.

Regarding `Cc1ccc2c(c1)c(Cn1cc(-c3sccc3C)nn1)nn2C`, the AC50 is 20.2 µM and 28.7 µM.

For `O=C(CC1CC1)N1CC[C@@H]2[C@H]1c1cc(-c3ccc(F)cc3)ccc1N[C@@H]2CO`, the AC50 is 19.7 µM.

On to `COc1ccc(CNc2nc(SCc3ccc(Cl)cc3)nc3ccccc23)cc1`, for which the AC50 was 35.5 µM.

With `CCOc1ccc(-c2nc(CN3CCN(C(=O)Nc4cc(OC)ccc4OC)CC3)c(C)o2)cc1`, the AC50 is 38 µM.

Consider `COc1cccc(S(=O)(=O)N2CCCCN3[C@H](CO)[C@H](c4ccc(C#CCC(C)C)cc4)[C@@H]3C2)c1`, for which the AC50 was 13.6 µM and 2.35 µM.

As to `COc1ccc(C#Cc2ccc([C@@H]3[C@@H](CO)N4C(=O)CN(C(=O)NC(C)C)C[C@@H]34)cc2)cc1`, the AC50 is 20.4 µM.

Regarding `O=C(CC1N=C2c3ccccc3N=C(SCc3ccccc3F)N2C1=O)NC1CCCCC1` (stereo not drawn), the AC50 was 19.1 µM.

With `CN(C)C(=O)COCc1cncc2c1CCN(c1ccccn1)C2`, the AC50 was 6.26 µM.

Take `CC(C)Cc1ccc(S(=O)(=O)N2CCC3(CC2)NCCN=C3NCc2ccc3c(c2)OCO3)cc1`: the AC50 is 5.76 µM.

For `CCOc1ccccc1-c1nc(CN(c2ccc(OC)cc2)S(=O)(=O)c2ccc(C)cc2)c(C)o1`, the AC50 was 10.7 µM.

For `C[C@@H]1CN([C@H](C)CO)C(=O)Cc2cc(NC(=O)C3CCCCC3)ccc2O[C@H]1CN(C)Cc1ccc(Cl)c(Cl)c1`, the AC50 is 17.4 µM.

For `Cc1ccc(-c2nc(CN3CCN(C(=O)Nc4cccc(Cl)c4)CC3)c(C)o2)cc1`, the AC50 is > 39 µM (inactive).

With `O=S(=O)(c1ccc2c(c1)CCCC2)N1CCC2(CC1)NCCN=C2NCc1cc(F)cc(F)c1`, the AC50 was 4.41 µM.

Turning to `Cc1cnn(C(C)C(=O)N2CCc3[nH]nc(-c4ccc(F)c(F)c4)c3C2)c1` (stereo not drawn), the AC50 was > 20 µM (inactive).

Take `Cc1cccc(CNC2=NCCNC23CCN(S(=O)(=O)c2ccc(CC(C)C)cc2)CC3)c1`: the AC50 is 8.2 µM.

`CCCCNC(=O)CCC1N=C2c3ccccc3N=C(SCc3ccc(C)cc3C)N2C1=O` (stereo not drawn): the AC50 is 25.1 µM.

With `COc1ccc(-c2nc(NCCN3CCOCC3)c3ccccc3n2)cc1`, the AC50 was 14.2 µM.

With `COc1ccc(N(Cc2nc(-c3ccccc3OC)oc2C)S(=O)(=O)c2ccc(C)cc2)cc1`, the AC50 was 19.3 µM.

As for `Cc1ccccc1CN1C[C@@H]2c3nc(N4CCCC(C)C4)ncc3CS(=O)(=O)[C@H]2C1` (stereo partly drawn), the AC50 was 24.5 µM and 4.74 µM.

With `CCOc1ccc(-c2nc(CN(c3ccc(OC)cc3)S(=O)(=O)c3ccccc3)c(C)o2)cc1`, the AC50 was 21.1 µM.

In the case of `CCCC(C)c1c(-c2ccccc2)ncn1Cc1cnc(C)cn1` (stereo not drawn), the AC50 is 33.4 µM.

`COc1ccccc1N1CCN(C(=O)CC2Nc3c4ccccc4nc(=S)n3C2=O)CC1` (stereo not drawn): the AC50 was 20.3 µM.

With `c1ccc(-c2noc(-c3ccc(N4CCC(N5CCCCC5)CC4)nc3)n2)cc1`, the AC50 was 18.6 µM.

For the molecule `O=C(Nc1cccc(F)c1)N1CCCCN2[C@@H](CO)[C@@H](c3ccc(C#Cc4cccnc4)cc3)[C@@H]2C1`, the AC50 was > 42 µM (inactive).

In the case of `COc1ccc(-c2nc(NCC3CCN(Cc4ccc(C)cc4)CC3)c3ccccc3n2)cc1`, the AC50 was 8.66 µM.

With `Fc1ccccc1CSc1nc(NCc2ccccc2)c2ccccc2n1`, the AC50 is 17.9 µM.

On to `O=C(CCCCCn1c(=S)[nH]c2ccccc2c1=O)N1CCC(O)(c2cccc(C(F)(F)F)c2)CC1`, for which the AC50 was 26.9 µM.

Take `COc1cccc(S(=O)(=O)N2CCCCN3[C@H](CO)[C@@H](c4ccc(C#CCC(C)C)cc4)[C@H]3C2)c1`: the AC50 is 24.9 µM and 10.3 µM and 9.5 µM.

Regarding `CCCCNC(=O)CC1N=C2c3ccccc3N=C(SCc3ccc(C)cc3)N2C1=O` (stereo not drawn), the concentration at half-maximal activity (AC50) is 10.4 µM.

With `CN(C[C@H]1N[C@@H](CO)[C@H]1c1ccc(-c2ccc(F)cc2)cc1)C(=O)C1CCC1`, the concentration at half-maximal activity (AC50) was 16.2 µM.

Turning to `CCCc1ccc(S(=O)(=O)N2CCC[C@@H]2C(=O)NCCc2csc(-c3ccccc3)n2)cc1`, the AC50 is 3.78 µM and 16 µM.

Turning to `Cc1cccc(-n2ncc3c(NCc4cccc(Cl)c4)ncnc32)c1`, the AC50 is 24.5 µM.

Consider `O=C(Cc1cccnc1)N1CC(=O)N2[C@H](CO)[C@@H](c3ccc(C#CC4CCCCC4)cc3)[C@@H]2C1`, for which the AC50 is 8.96 µM and 14.8 µM.

For the molecule `Cc1nc(CCNC(=O)C2CCN(S(=O)(=O)c3ccc(C(C)(C)C)cc3)CC2)cs1`, the half-maximal activity concentration (AC50) was 31.4 µM.

`Cc1nc(OCC(=O)Nc2ccc(Cl)cc2)c2ccccc2n1`: the AC50 was > 39 µM (inactive).

With `CCOc1ccc(-c2nc(CN3CCN(C(=O)Nc4ccccc4)CC3)c(C)o2)cc1`, the AC50 was 16.9 µM.

For `CC(C)Cc1ccc(S(=O)(=O)N2CCC3(CC2)NCCN=C3NC2CCCCC2)cc1`, the AC50 is 25.6 µM.

For the molecule `Cc1ccc(-c2nc(CN(c3ccccc3)S(=O)(=O)c3cccs3)c(C)o2)cc1`, the AC50 is 10.8 µM.

For the molecule `Cc1nc(OCC(=O)Nc2ccc(Cl)c(Cl)c2)c2ccccc2n1`, the AC50 was > 39 µM (inactive).

For the molecule `CC(C)CNC(=O)c1nc2c(s1)CCN(C(=O)NCc1ccccc1)CC2`, the AC50 was 16.1 µM.

Consider `CS(=O)(=O)N1CSC[C@@H]1C(=O)NCCc1csc(-c2ccccc2)n1`, for which the AC50 was 30.8 µM.

Regarding `O=C(NCc1cncc2c1CCN(Cc1cccc(F)c1)C2)C1CC1`, the AC50 was 8.45 µM.

On to `O=C(Nc1cccc(F)c1)N1CCCCN2[C@H](CO)[C@H](c3ccc(C#Cc4cccnc4)cc3)[C@H]2C1`, for which the AC50 is 19.3 µM.

For the molecule `Cc1cccc(-c2ccc(C3[C@@H]4CN(Cc5cccc(F)c5)C[C@H]3N4)cc2)c1` (stereo partly drawn), the AC50 was 26.2 µM.

Regarding `C(=C\c1ccc(C2[C@H]3CNC[C@@H]2N3CC2CCOCC2)cc1)/c1ccccc1` (stereo partly drawn), the AC50 is 26.3 µM.

`CCOc1ccc(CC(=O)N2CCC3(CC2)Nc2cc(F)ccc2-n2cccc23)cc1OCC`: the AC50 was > 39 µM (inactive).

For the molecule `Cc1cccc(CNC2=NCCNC23CCN(S(=O)(=O)c2cc(C)cc(C)c2)CC3)c1`, the AC50 was 25.7 µM.

For `CCOc1ccccc1NS(=O)(=O)c1cc2c3c(c1)CCC(=O)N3CCC2`, the AC50 was 26.1 µM.
